Measured values as given in US20030229063A1, “Use of 4-hydroxytestosterone to lower estrogen levels in humans” (priority 2002, published 2003).

Assays:
aromatase [1] = target: T1, aromatase (Homo sapiens, UniProt P11511); conditions: androstenedione vs testosterone as aromatase substrates; cited from earlier work
T1 sequence (P11511 1-503): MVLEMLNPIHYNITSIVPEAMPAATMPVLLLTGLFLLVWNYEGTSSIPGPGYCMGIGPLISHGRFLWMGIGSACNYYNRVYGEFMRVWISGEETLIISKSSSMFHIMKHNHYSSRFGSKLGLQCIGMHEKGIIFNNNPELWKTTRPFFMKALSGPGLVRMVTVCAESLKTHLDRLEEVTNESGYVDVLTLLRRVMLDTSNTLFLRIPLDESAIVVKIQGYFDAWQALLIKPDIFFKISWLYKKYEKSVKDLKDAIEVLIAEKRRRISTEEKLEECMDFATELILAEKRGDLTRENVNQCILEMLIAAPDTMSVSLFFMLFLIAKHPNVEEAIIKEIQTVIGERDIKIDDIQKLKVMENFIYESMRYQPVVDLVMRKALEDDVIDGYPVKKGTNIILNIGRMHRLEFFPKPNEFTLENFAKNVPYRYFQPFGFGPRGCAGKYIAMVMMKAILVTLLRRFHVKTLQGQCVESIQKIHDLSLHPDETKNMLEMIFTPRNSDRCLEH

aromatase enzyme complex = target: T2, aromatase enzyme complex (Homo sapiens, UniProt P11511); conditions: irrevocably attaches the enzyme; cited from earlier work
T2 sequence (P11511 1-503): T1 sequence (P11511 1-503)

aromatase [2] = target: T1, aromatase; assay: clinical study of peroral aromatase inhibition in man; format: in vivo; set-up: from tissue; host or cells: in vivo, human subjects (whole body); conditions: in humans

C[C@]12CC[C@H]3[C@@H](CCC4=CC(=O)CC[C@@]43C)[C@@H]1CC[C@@H]2O [testosterone]
ability to aromatize to the corresponding estrogen (aromatase [1]): both hormones aromatized with equal efficacy

C[C@]12CCC(=O)C(O)=C1CC[C@@H]1[C@@H]2CC[C@]2(C)C(=O)CC[C@@H]12 [4-hydroxyandrostenedione]
mode of aromatase inhibition (aromatase enzyme complex): suicide substrate for the aromatase enzyme complex

C[C@]12CC[C@H]3[C@@H](CCC4=C(O)C(=O)CC[C@@]43C)[C@@H]1CC[C@@H]2O [4-hydroxytestosterone, 4,17b-dihydroxy-4-androstene-3-one]
efficacy as an inhibitor of aromatase compared with 4-hydroxyandrostenedione (aromatase [2]): equally high level of efficacy in humans as an inhibitor of aromatase

C[C@]12CCC(=O)C=C1CC[C@@H]1[C@@H]2CC[C@]2(C)C(=O)CC[C@@H]12 [androstenedione]
ability to aromatize to the corresponding estrogen (aromatase [1]): both hormones aromatized with equal efficacy
